Here are results for 18 molecules from US6977246B2, “Certain dinucleotides and their use as modulators of mucociliary clearance and ciliary beat frequency” (Inspire Pharmaceuticals, Inc., priority 1997, dated 2005).

Structures can show the parent of a compound that is named as a salt. Where two headings read alike, the source gives them in different places.

Series [1] has as its target P2Y4 receptor (Homo sapiens, UniProt P51582). In words: inositol phosphate assay, P2Y4 receptor activity.
Excerpt: (§1) The pharmaceutical utility of compounds of this invention are indicated by the inositol phosphate assay for P2Y2 and other P2Y receptor activity. […] 116, 1619-27 (1995), relies on the measurement of inositol phosphate formation as a measurement of activity of compounds activating receptors linked via G-proteins to phospholipase C.
Series [2] concerns the target P2Y6 receptor (Homo sapiens, UniProt Q15077). In words: inositol phosphate assay, P2Y6 receptor activity.
Excerpt: as §1
The target in series [3] is P2Y2 receptor (Homo sapiens, UniProt P41231). Nature of the series: inositol phosphate assay, P2Y2 receptor activity.
Sequence of P2Y2 receptor (P41231 whole entry): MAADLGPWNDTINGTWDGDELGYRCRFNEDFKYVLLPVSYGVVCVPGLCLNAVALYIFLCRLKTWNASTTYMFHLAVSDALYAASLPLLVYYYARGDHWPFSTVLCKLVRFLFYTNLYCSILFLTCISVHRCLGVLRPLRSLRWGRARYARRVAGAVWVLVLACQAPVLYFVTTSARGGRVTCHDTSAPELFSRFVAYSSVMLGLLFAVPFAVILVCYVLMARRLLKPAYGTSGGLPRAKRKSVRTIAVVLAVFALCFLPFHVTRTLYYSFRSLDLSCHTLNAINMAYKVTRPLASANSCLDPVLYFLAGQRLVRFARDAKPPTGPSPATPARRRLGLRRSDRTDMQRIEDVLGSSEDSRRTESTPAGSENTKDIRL
Excerpt: as §1
Series [4] addresses T1, P2Y1 receptor (Homo sapiens, UniProt P47900). Nature of the series: inositol phosphate assay, P2Y1 receptor activity. The following applies: inositol phosphate formation.
Excerpt: as §1
Series [5] concerns the target T1, P2Y1 receptor. Nature of the series: cell-based.
Excerpt: as §1
The conditions of series [6]: normal volunteers; cited from earlier work.
The mark [7] stands for this setting: read-out: EC50 P2Y4, inositol phosphate formation.
Setting [8] is: read-out: EC50 P2Y6, inositol phosphate formation.
Setting [9] is: read-out: EC50 P2Y2, inositol phosphate formation.

In general, EC50 refers to the concentration needed to bring the measured effect to its halfway point.

T1 sequence (P47900 whole entry): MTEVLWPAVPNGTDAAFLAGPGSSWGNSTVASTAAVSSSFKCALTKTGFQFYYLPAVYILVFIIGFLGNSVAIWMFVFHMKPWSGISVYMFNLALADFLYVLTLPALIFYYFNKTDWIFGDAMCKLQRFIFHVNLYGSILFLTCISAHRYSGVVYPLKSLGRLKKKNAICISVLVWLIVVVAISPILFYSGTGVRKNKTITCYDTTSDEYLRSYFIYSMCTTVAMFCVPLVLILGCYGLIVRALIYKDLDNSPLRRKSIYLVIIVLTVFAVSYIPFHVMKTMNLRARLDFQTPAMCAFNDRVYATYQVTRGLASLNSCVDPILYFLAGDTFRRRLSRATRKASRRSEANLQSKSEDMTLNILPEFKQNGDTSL
Sequence of P2Y4 receptor (P51582 whole entry): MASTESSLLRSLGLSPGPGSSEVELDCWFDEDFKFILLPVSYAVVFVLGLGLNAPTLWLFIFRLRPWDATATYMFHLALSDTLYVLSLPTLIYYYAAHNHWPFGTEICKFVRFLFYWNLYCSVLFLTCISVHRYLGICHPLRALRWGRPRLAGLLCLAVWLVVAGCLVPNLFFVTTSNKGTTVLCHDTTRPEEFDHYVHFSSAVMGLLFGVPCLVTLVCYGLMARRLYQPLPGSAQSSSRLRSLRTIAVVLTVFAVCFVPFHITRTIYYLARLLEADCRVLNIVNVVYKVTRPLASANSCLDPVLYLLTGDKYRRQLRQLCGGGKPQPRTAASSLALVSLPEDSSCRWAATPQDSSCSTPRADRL
Sequence of P2Y6 receptor (Q15077 whole entry): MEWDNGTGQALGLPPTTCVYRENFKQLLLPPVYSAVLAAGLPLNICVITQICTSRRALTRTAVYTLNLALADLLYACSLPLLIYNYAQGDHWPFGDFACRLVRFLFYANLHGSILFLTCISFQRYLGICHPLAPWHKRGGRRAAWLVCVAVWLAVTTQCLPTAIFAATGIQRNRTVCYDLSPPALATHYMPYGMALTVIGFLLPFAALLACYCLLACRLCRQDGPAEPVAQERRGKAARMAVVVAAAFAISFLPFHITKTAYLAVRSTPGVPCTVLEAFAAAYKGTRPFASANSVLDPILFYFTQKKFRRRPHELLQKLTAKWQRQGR

Consider `O=c1ccn([C@@H]2O[C@H](COP(=O)(O)OP(=O)(O)OP(=O)(O)OP(=O)(O)OC[C@H]3O[C@@H](n4ccc(=O)[nH]c4=O)C[C@@H]3O)[C@@H](O)[C@H]2O)c(=O)[nH]1` [Example 12, P^1-(2′-deoxyuridine 5′-)-P^4-(uridine 5′-)tetraphosphate], for which the results for the 50% effective concentration (EC50) in series [1], in series [2] and in series [3] were 390 nM, 920 nM and 100 nM, respectively.

Regarding `O=c1ccn([C@@H]2O[C@H](COP(=O)(O)OP(=O)(O)C(F)(F)P(=O)(O)OP(=O)(O)OC[C@H]3O[C@@H](n4ccc(=O)[nH]c4=O)[C@H](O)[C@@H]3O)[C@@H](O)[C@H]2O)c(=O)[nH]1` [Example 2, P^1,P^4-Di(uridine 5′-P^2,P^3-difluoromethylenetetraphosphate)], the concentration for a half-maximal effect (EC50) in series [1] was 1000 nM; in series [2], over 100000 nM; in series [3] it was 5710 nM. Also, the “Percentage response of same study positive control, P2Y4” value (“Percentage response … P2Y4” below) in series [1] (inositol phosphate formation) amounted to 80%.

Take `O=c1ccn([C@@H]2O[C@H](COP(=O)(O)OP(=O)(O)OP(=O)(O)OP(=O)(O)OP(=O)(O)OP(=O)(O)OC[C@H]3O[C@@H](n4ccc(=O)[nH]c4=O)[C@H](O)[C@@H]3O)[C@@H](O)[C@H]2O)c(=O)[nH]1` [Example 14, P^1,P^6-Di(uridine-5′-)hexaphosphate]: the values for the EC50 in series [1] (setting [7]), in series [2] (setting [8]) and in series [3] (setting [9]) were 14700 nM, 3500 nM and 10700 nM, respectively.

In the case of `Cc1cn([C@H]2C[C@H](N=[N+]=[N-])[C@@H](COP(=O)(O)OP(=O)(O)OP(=O)(O)OP(=O)(O)OC[C@H]3O[C@@H](n4ccc(=O)[nH]c4=O)[C@H](O)[C@@H]3O)O2)c(=O)[nH]c1=O` [Example 13, P^1-(3′-Azido-3′-deoxythymidine 5′-)-P^4-(uridine 5′-)tetraphosphate], the concentration for a half-maximal effect (EC50) was determined as 130 nM in series [1], 540 nM in series [2] and 200 nM in series [3].

For the molecule `O=c1[nH]c(=S)ccn1[C@@H]1O[C@H](COP(=O)(O)OP(=O)(O)OP(=O)(O)OP(=O)(O)OC[C@H]2O[C@@H](n3ccc(=S)[nH]c3=O)[C@H](O)[C@@H]2O)[C@@H](O)[C@H]1O` [Example 4, P^1,P^4-Di(4-thiouridine 5′-tetraphosphate)], the EC50 in series [2] was 50 nM; in series [3], 20 nM. The “Percentage response of same study positive control, P2Y6” value in series [2] (inositol phosphate formation) is listed as 20%.

In the case of “2′(3′)-Benzoyl-P^1,P^4-di(uridine 5′-)tetraphosphate [Example 15]”, the “EC50 P2Y1” value in series [4] is on record as “IA (Response < 2-fold basal)”. The figures for the EC50 in series [1] (setting [7]), in series [2] (setting [8]) and in series [3] (setting [9]) were 3720 nM, 9710 nM and 640 nM, respectively.

Take `Nc1ccn([C@@H]2O[C@H](COP(=O)(O)OP(=O)(O)OP(=O)(O)OP(=O)(O)OC[C@H]3O[C@@H](n4ccc(=O)[nH]c4=O)[C@H](O)[C@@H]3O)[C@@H](O)[C@@H]2O)c(=O)n1` [Example 10, P^1-(Cytosine β-D-arabinofuranoside 5′-)P^4-(uridine 5′-)tetraphosphate]: the EC50 in series [1] came to 320 nM; in series [2], 1300 nM; in series [3], 190 nM. The “Percentage response … P2Y4” value in series [1] (inositol phosphate formation) turned out to be 65%.

Consider `Cc1cn([C@H]2C[C@H](O)[C@@H](COP(=O)(O)OP(=O)(O)OP(=O)(O)OP(=O)(O)OC[C@H]3O[C@@H](n4ccc(=O)[nH]c4=O)[C@H](O)[C@@H]3O)O2)c(=O)[nH]c1=O` [Example 7, P^1-(Thymidine-5′-)P^4-(uridine-5′-)tetraphosphate], for which the half-maximal effective concentration (EC50) came to 200 nM in series [1], 880 nM in series [2] and 110 nM in series [3].

Regarding `O=c1ccn([C@@H]2O[C@H](COP(=O)(O)OP(=O)(O)OP(=O)(O)OP(=O)(O)OC[C@H]3O[C@@H](n4ccc(=S)[nH]c4=O)[C@H](O)[C@@H]3O)[C@@H](O)[C@H]2O)c(=O)[nH]1` [Example 9, P^1-(4-Thiouridine 5′-)P^4-(uridine 5′-)tetraphosphate], the EC50 in series [5] was over 100000 nM; in series [1], 4160 nM; in series [2], 1790 nM; in series [3] it was 370 nM.

Regarding `O=c1ccn([C@@H]2O[C@H](COP(=O)(O)OP(=O)(O)OP(=O)(O)OP(=O)(O)OC[C@H]3O[C@@H](n4cnc5c(=O)[nH]cnc54)[C@H](O)[C@@H]3O)[C@@H](O)[C@H]2O)c(=O)[nH]1` [Example 8, P^1-(Inosine 5′-)P^4-(uridine 5′-)tetraphosphate], the EC50 came out at 150 nM in series [1], 800 nM in series [2] and 110 nM in series [3].

With `O=c1n([C@@H]2O[C@H](COP(=O)(O)OP(=O)(O)OP(=O)(O)OP(=O)(O)OC[C@H]3O[C@@H](n4ccc5nccn5c4=O)[C@H](O)[C@@H]3O)[C@@H](O)[C@H]2O)ccc2nccn12` [Example 6, P^1,P^4-Di(3,N^4-ethenocytidine 5′-)tetraphosphate], the concentration giving a half-maximal response (EC50) in series [5] is over 100000 nM; in series [1], 19800 nM; in series [3], 460 nM. Also, the “Percentage response … P2Y4” value in series [1] (inositol phosphate formation) came to 75%. Also, the “EC50 P2Y6” value in series [2] (inositol phosphate formation) was “IA (Response < 2-fold basal)”.

`O=c1ccn([C@@H]2O[C@H](COP(=O)(O)OP(=O)(O)CP(=O)(O)OP(=O)(O)OC[C@H]3O[C@@H](n4ccc(=O)[nH]c4=O)[C@H](O)[C@@H]3O)[C@@H](O)[C@H]2O)c(=O)[nH]1` [Example 1, P^1,P^4-Di(uridine 5′-)P^2,P^3-methylenetetraphosphate]: the concentration giving a half-maximal response (EC50) was 11100 nM in series [1] and over 100000 nM in series [3]. For the same molecule, the “Percentage response … P2Y4” value in series [1] (inositol phosphate formation) was 60%. Further, the “EC50 P2Y6” value in series [2] (inositol phosphate formation) is recorded as “IA (Response < 2-fold basal)”.

Turning to `O=c1ccn([C@@H]2O[C@H](COP(=O)(O)OP(=O)(O)NP(=O)(O)OP(=O)(O)OC[C@H]3O[C@@H](n4ccc(=O)[nH]c4=O)[C@H](O)[C@@H]3O)[C@@H](O)[C@H]2O)c(=O)[nH]1` [Example 3, P^1,P^4-Di(uridine 5′-P^2,P^3-imidotetraphosphate)], the half-maximal effective concentration (EC50) in series [5] turned out to be 3670 nM; in series [1], 1190 nM; in series [2] it was 2560 nM; in series [3], 630 nM.

With `O=c1ccn([C@@H]2O[C@H](COP(=O)(O)OP(=O)(O)OP(=O)(O)OP(=O)(O)OC[C@H]3O[C@@H](n4cnc5c(=O)[nH]c(=O)[nH]c54)[C@H](O)[C@@H]3O)[C@@H](O)[C@H]2O)c(=O)[nH]1` [Example 11, P^1-(Uridine 5′-)-P^4-(xanthosine 5′-)tetraphosphate], the figures for the EC50 in series [1], in series [2] and in series [3] were 380 nM, 3390 nM and 130 nM, respectively. Further, the “Percentage response … P2Y4” value in series [1] (inositol phosphate formation) is 75%.

For `O=c1ccn([C@@H]2O[C@H](COP(=O)(O)OP(=O)(O)OP(=O)(O)OP(=O)(O)OP(=O)(O)OC[C@H]3O[C@@H](n4ccc(=O)[nH]c4=O)[C@H](O)[C@@H]3O)[C@@H](O)[C@H]2O)c(=O)[nH]1` [Example 5, P^1,P^5-Di(uridine 5′-pentaphosphate)], the “Percentage response of same study positive control, P2Y1” value in series [4] is listed as 55%. In addition, the EC50 was found to be 31200 nM in series [5], 2870 nM in series [1], 92600 nM in series [2] and 3800 nM in series [3]. In addition, in series [3] (inositol phosphate formation), the “Percentage response of same study positive control, P2Y2” value is reported as 80%.

“P^1,P^4-Di(2′(3′)-benzoyl uridine 5′-)tetraphosphate [Example 16]”: in series [4], the “EC50 P2Y1” value is “IA (Response < 2-fold basal)”. The EC50 in series [1] (setting [7]) is 730 nM; in series [2] (setting [8]), 5330 nM; in series [3] (setting [9]), 790 nM.

On to `O=c1n([C@@H]2O[C@H](COP(=O)(O)OP(=O)(O)OP(=O)(O)OP(=O)(O)OC[C@H]3O[C@@H](n4ccc5nc(-c6cccc([N+](=O)[O-])c6)cn5c4=O)[C@H](O)[C@@H]3O)[C@@H](O)[C@H]2O)ccc2nc(-c3cccc([N+](=O)[O-])c3)cn12` [Example 6a, P^1,P^4-Di(imidazo[1,2-c]pyrimidin-5(6H)-one-2-(3-nitro)-phenyl-6-β-D-ribofuranoside 5′-)tetraphosphate, tetraammonium salt], for which the half-maximal effective concentration (EC50) in series [1] was determined as 60 nM; in series [2], 870 nM; in series [3], 300 nM.

In the case of `O=c1ccn([C@@H]2O[C@H](COP(=O)(O)OP(=O)(O)OP(=O)(O)O)[C@@H](O)[C@H]2O)c(=O)[nH]1` [UTP, uridine 5′-triphosphate], in series [6], the “improvement in lung mucociliary clearance” value is 2.5 fold and the side-effects result is recorded as “without any significant side-effects”.
